ChEMBL document CHEMBL1914442, “Metabolism-directed design of oxetane-containing arylsulfonamide derivatives as γ-secretase inhibitors” (J Med Chem, 2011)

Tests used:
[1] = Apparent permeability from apical to basolateral side of dog RRCK cells by transwell assay; type: ADME, cell-based, Canis lupus familiaris, MDCKII-LE; conditions: MDCK
physchem = conditions: octanol/water, pH 7.4
[2] = Oral bioavailability in mouse; type: ADME, organism-based; conditions: in vivo
[3] = Oral bioavailability in rat; type: ADME, organism-based; conditions: in vivo
[4] = Drug uptake in wild-type mouse 129/sve cerebrospinal fluid at 100 mg/kg, sc administered as a single dose measured 1 hr post-dose by LC-MS analysis; type: ADME, organism-based; set-up: dose 100 mg/kg, route subcutaneous; conditions: read-out: Drug uptake
[5] = Drug uptake in wild-type mouse 129/sve cerebrospinal fluid at 100 mg/kg, sc administered as a single dose measured 4 hr post-dose by LC-MS analysis; type: ADME, organism-based; set-up: dose 100 mg/kg, route subcutaneous; conditions: read-out: Drug uptake

Row | Structure (SMILES) | Papp A→B [1] [×10⁻⁶ cm/s] | logD (physchem) | bioavailability [2] [%] | bioavailability [3] [%] | concentration at 1 h [4] [nM] | concentration at 4 h [5] [nM]
1 | C[C@@H]1C[C@@H](CN([C@H](CCC(F)(F)F)C(N)=O)S(=O)(=O)c2ccc(Cl)cc2)O1 | 21.2 | – | – | – | – | –
2 | CC1(C)CO[C@@H]1CN([C@H](CCC(F)(F)F)C(N)=O)S(=O)(=O)c1ccc(Cl)cc1 | 22.3 | 3.9 | – | – | – | –
3 | CC1(C)CO[C@H]1CN([C@H](CCC(F)(F)F)C(N)=O)S(=O)(=O)c1ccc(Cl)cc1 | 26.4 | 3.8 | – | – | – | –
4 | NC(=O)[C@@H](CCC(F)(F)F)N(C[C@@H]1CCO1)S(=O)(=O)c1ccc(Cl)cc1 | 34.9 | 2.6 | < 5 | < 5 | 447 | 59.6
5 | CC1(C)C[C@@H](CN([C@H](CCC(F)(F)F)C(N)=O)S(=O)(=O)c2ccc(Cl)cc2)O1 | 14.9 | 3.8 | < 5 | < 5 | – | –
6 | CC1(C)C[C@H](CN([C@H](CCC(F)(F)F)C(N)=O)S(=O)(=O)c2ccc(Cl)cc2)O1 | 18.1 | 3.8 | – | – | – | –
7 | C[C@H]1C[C@@H](CN([C@H](CCC(F)(F)F)C(N)=O)S(=O)(=O)c2ccc(Cl)cc2)O1 | 21.8 | – | – | – | – | –
8 | NC(=O)[C@@H](CCC(F)(F)F)N(C[C@H]1COCCO1)S(=O)(=O)c1ccc(Cl)cc1 | 20.6 | 2.75 | – | – | – | –
9 | NC(=O)[C@@H](CCC(F)(F)F)N(C[C@H]1CCCCO1)S(=O)(=O)c1ccc(Cl)cc1 | 13.4 | 4.3 | – | – | – | –
10 | NC(=O)[C@@H](CCC(F)(F)F)N(C[C@@H]1COCCO1)S(=O)(=O)c1ccc(Cl)cc1 | 27.3 | 2.75 | – | – | – | –
11 | NC(=O)[C@@H](CCC(F)(F)F)N(C[C@@H]1CCCCO1)S(=O)(=O)c1ccc(Cl)cc1 | 15.4 | 4.3 | – | – | – | –

Results, then the compound that gave them:

Row | Papp A→B [1] [×10⁻⁶ cm/s] | logD (physchem) | bioavailability [2] [%] | bioavailability [3] [%] | concentration at 1 h [4] [nM] | concentration at 4 h [5] [nM] | Structure (SMILES)
12 | 26.3 | 3.5 | – | – | – | – | NC(=O)[C@@H](CCC(F)(F)F)N(CC1CCOCC1)S(=O)(=O)c1ccc(Cl)cc1
13 | 21.7 | 2.8 | – | – | – | – | NC(=O)[C@@H](CCC(F)(F)F)N(C[C@H]1CCOC1)S(=O)(=O)c1ccc(Cl)cc1
14 | 25.4 | 2.5 | < 5 | < 5 | – | – | NC(=O)[C@@H](CCC(F)(F)F)N(CC1COC1)S(=O)(=O)c1ccc(Cl)cc1
15 | 18.4 | 3.7 | – | – | – | – | NC(=O)[C@@H](CCC(F)(F)F)N(C[C@@H]1CCCOC1)S(=O)(=O)c1ccc(Cl)cc1
16 | 20.5 | 2.8 | – | – | – | – | NC(=O)[C@@H](CCC(F)(F)F)N(C[C@@H]1CCOC1)S(=O)(=O)c1ccc(Cl)cc1
17 | 6.01 | 5.15 | – | – | – | – | NC(=O)[C@@H](CCC(F)(F)F)N(CC1CCCC1)S(=O)(=O)c1ccc(Cl)cc1
18 | 4.42 | – | – | – | – | – | NC(=O)[C@@H](CCC(F)(F)F)N(CC1CCCCC1)S(=O)(=O)c1ccc(Cl)cc1
19 | 11.1 | – | – | – | – | – | NC(=O)[C@@H](CCC(F)(F)F)N(CC1CCC1)S(=O)(=O)c1ccc(Cl)cc1
20 | 18.2 | 3.6 | – | – | – | – | NC(=O)[C@@H](CCC(F)(F)F)N(C[C@H]1CCCOC1)S(=O)(=O)c1ccc(Cl)cc1
21 | 22.4 | 3.5 | – | – | – | – | NC(=O)[C@@H](CCC(F)(F)F)N(C[C@@H]1CCCO1)S(=O)(=O)c1ccc(Cl)cc1
22 | 19.1 | 3.6 | – | – | – | – | NC(=O)[C@@H](CCC(F)(F)F)N(C[C@H]1CCCO1)S(=O)(=O)c1ccc(Cl)cc1
23 | 28.7 | 2.6 | – | – | – | – | NC(=O)[C@@H](CCC(F)(F)F)N(C[C@H]1CCO1)S(=O)(=O)c1ccc(Cl)cc1
